Source: patent publication US8278293B2, “Diazo bicyclic Smac mimetics and the uses thereof” (The Regents of the University of Michigan, priority 2007, dated 2012)
Where two headings read alike, the source gives them in different places. One block for each molecule: values may come before it. Square brackets hold non-standard residues; d marks the D form. Peptide text beside a SMILES is read from it. * marks the point of attachment. 5FAM = O=C1OC2(c3ccc(O)cc3Oc3cc(O)ccc32)c2ccc(C(=O)*)cc21; Abu = CC[C@H](N)C(=O)O

How the values were obtained:
[1] = test system: OVCAR-4 ovarian cancer cell line; experiment: Cell growth inhibition, WST-based assay, OVCAR-4; settings: Homo sapiens, OVCAR-4, 96 h; single agent, 4 days, FIG. 8
Procedure: (§1) The ability of SM-406 to inhibit cell growth as a single agent was tested in the MDA-MB-231 breast cancer cell line, SK-OV-3 and OVCAR-4 ovarian cancer cell lines and SK-MeI-2 melanoma cancer cell line. Cells were treated for 4 days. Cell growth was determined using a WST-based assay.

XIAP BIR3 [2] = target: T1, XIAP BIR3 (Homo sapiens, UniProt P98170); experiment: Fluorescence polarization (FP) based competitive binding assay to XIAP BIR3; design: human XIAP (residues 241-356) fused to His-tag; His-tag; settings: FP binding, XIAP BIR3 30 nM, SM5F 5 nM
Target sequence in this assay (P98170 241-356): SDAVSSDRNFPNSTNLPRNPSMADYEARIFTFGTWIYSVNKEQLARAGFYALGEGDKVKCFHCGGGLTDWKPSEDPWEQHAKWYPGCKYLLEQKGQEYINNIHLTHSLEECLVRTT

HL-60 leukemia cell line = experiment: Cell growth inhibition, WST-based assay, HL-60; settings: Homo sapiens, HL-60, 96 h; single agent, 4 days, FIG. 9
Procedure: (§2) The ability of SM-406 to inhibit cell growth as a single agent was tested in the HL-60 and SR leukemia cell lines. Cells were treated for 4 days. Cell growth was determined using a WST-based assay.

[3] = test system: SK-OV-3 ovarian cancer cell line; experiment: Cell growth inhibition, WST-8 assay, SK-OV-3; format: cell-based; settings: for IC50: Homo sapiens, SK-OV-3, 96 h
Procedure: (§3) The effect of the compounds of the present invention on the growth of various cancer cell lines was tested. Cells were seeded in 96-well flat bottom cell culture plates at a density of 3000 cells/well with a tested compound and incubated at 37° C. in an atmosphere of 95% air and 5% CO2 for 4 days. […] Dojindo Molecular Technologies, Inc., Gaithersburg, Md.). […] The absorbance of the samples was measured at 450 nm using a ULTRA Tecan Reader (Molecular Device). […] The ability of SM-406 to inhibit cell growth as a single agent was tested in the MDA-MB-231 breast cancer cell line, SK-OV-3 and OVCAR-4 ovarian cancer cell lines and SK-MeI-2 melanoma cancer cell line. Cells were treated for 4 days. Cell growth was determined using a WST-based assay.

[4] = test system: MDA-MB-231 human breast cancer cell line; experiment: Cell growth inhibition, WST-8 assay, MDA-MB-231; format: cell-based; settings: for IC50: Homo sapiens, MDA-MB-231, 96 h
Procedure: as §3

[5] = test system: MDA-MB-231 breast cancer xenograft; experiment: MDA-MB-231 breast cancer xenograft model in nude mice; format: in vivo
Procedure: The ability of SM-406 (AT-406) to act as anti-tumor agent was tested in the MDA-MB-231 breast cancer xenograft (nude mice) model. SM-406 (AT-406) was administered qd×5 per week for two weeks. […] Body weight loss was less in weekly dosing (<5%) compared to the other dosing schedules.

[6] = test system: SK-Mel-2 melanoma cancer cell line; experiment: Cell growth inhibition, WST-based assay, SK-Mel-2; settings: Homo sapiens, SK-MEL-2, 96 h; single agent, 4 days, FIG. 8
Procedure: as §1

SR leukemia cell line = experiment: Cell growth inhibition, WST-based assay, SR; settings: 96 h; single agent, 4 days, FIG. 9
Procedure: as §2

cIAP2 BIR3 domain = target: T2, cIAP2 BIR3 domain (Homo sapiens, UniProt Q13489); experiment: FP competitive binding assay to cIAP2 BIR3; settings: FP tracer; read-out: affinity of tracer for cIAP2
T2 construct: cIAP2 BIR3 domain (residues 238-349); His-tag
T2 sequence (Q13489 238-349): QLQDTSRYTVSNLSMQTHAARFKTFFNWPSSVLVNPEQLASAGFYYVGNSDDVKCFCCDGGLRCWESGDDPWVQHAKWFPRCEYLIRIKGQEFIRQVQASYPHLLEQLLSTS

cIAP1 BIR3 domain = target: T3, cIAP1 BIR3 domain (Homo sapiens, UniProt Q13490); experiment: FP competitive binding assay to cIAP1 BIR3; settings: FP tracer; read-out: affinity of tracer for cIAP1
T3 construct: cIAP1 BIR3 domain (residues 253-363); His-tag
T3 sequence (Q13490 253-363): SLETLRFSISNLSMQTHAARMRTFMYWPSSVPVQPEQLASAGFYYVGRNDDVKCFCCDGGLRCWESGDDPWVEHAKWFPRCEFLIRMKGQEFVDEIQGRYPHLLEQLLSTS

ML-IAP BIR3 domain = target: T4, ML-IAP BIR3 domain (Homo sapiens, UniProt Q96CA5); experiment: FP competitive binding assay to ML-IAP BIR3; settings: FP tracer; read-out: affinity of tracer for ML-IAP
T4 construct: ML-IAP BIR3 domain (residues 63-179), fused to a His-tag; His-tag
T4 sequence (Q96CA5 63-179): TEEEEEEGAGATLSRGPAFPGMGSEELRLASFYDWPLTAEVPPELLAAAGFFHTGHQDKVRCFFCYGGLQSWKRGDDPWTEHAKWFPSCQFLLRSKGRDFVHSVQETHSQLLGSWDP
Procedure: In order to test the binding ability of conformationally constrained Smac mimetics to other IAP proteins (ML-IAP, cIAP1, and cIAP2) binding assay conditions were developed and optimized. The recombinant cIAP1 BIR3 domain (residues 253-363), cIAP2 BIR3 domain (residues 238-349), and ML-IAP BIR3 domain (residues 63-179), fused to a His-tag, were used in the binding assays. Competitive binding assays for other IAP proteins were performed similarly as that described for XIAP BIR3. […] The following protein concentration and tracer were used in the competitive assay: 10 nM cIAP1 and 2 nM SM5F, 25 nM cIAP2 and 2 nM SM5F, 300 nM ML-IAP and 5 nM SM5F
The competitive binding curves of SM-406 and SM-428 to BIR^3 domains of four members of IAP proteins were determined using a fluorescence-polarization-based binding assay. The IAP proteins tested include: (A) XIAP; (B) cIAP1; (C) cIAP2; (D) ML-IAP.

[7] = test system: breast cancer MDA-MB-231 cell line; experiment: Induction of cell death, trypan blue exclusion, MDA-MB-231; format: cell-based
Procedure: (§4) The ability of YP-337 to induce cell death was tested in the breast cancer MDA-MB-231 and ovarian cancer SK-OV-3 cell lines (Table 4). Cells were treated with YP-337 for 48 hours and cell viability was determined using the trypan blue exclusion assay.

[8] = test system: ovarian cancer SK-OV-3 cell line; experiment: Induction of cell death, trypan blue exclusion, SK-OV-3; format: cell-based
Procedure: as §4

XIAP BIR3 [9] = target: T1, XIAP BIR3; settings: background statement; cited from earlier work
Target sequence in this assay (P98170 241-356 limits assumed): as the sequence (P98170 241-356) above

[10] = 4 days, WST-8, read-out: SK-OV-3 IC50
[11] = 4 days, WST-8, read-out: MDA-MB-231 IC50

Molecule: CC[C@H](N)C(=O)N[C@@H](CCCNC(=N)N)C(=O)N1CCC[C@H]1C(=O)N[C@@H](Cc1ccccc1)C(=O)N[C@@H](CCCCNC(=O)c1ccc2c(c1)C(=O)OC21c2ccc(O)cc2Oc2cc(O)ccc21)C(N)=O [SM5F, AbuRPF-K-(5-Fam)-NH2] (H-[Abu]RPFK(5FAM)-NH2; N-terminus assumed)
Kd (cIAP2 BIR3 domain): 6.6 nM
Kd (cIAP1 BIR3 domain): 4.1 nM
Kd (ML-IAP BIR3 domain): 160 nM

Molecule: CN[C@@H](C)C(=O)N[C@H]1CN(C(=O)Cc2ccccc2)CC[C@H]2CC[C@@H](C(=O)NC(c3ccccc3)c3ccccc3)N2C1=O [SM-337]
Approximate % of dead cells after 48 h, MDA-MB-231 ([7]; 0.1 nM): ~10%
Approximate % of dead cells after 48 h, MDA-MB-231 ([7]; 1 nM): ~35%
Approximate % of dead cells after 48 h, MDA-MB-231 ([7]; 10 nM): ~60%
Approximate % of dead cells after 48 h, MDA-MB-231 ([7]; 100 nM): ~75%
Approximate % of dead cells after 48 h, SK-OV-3 ([8]; 0.1 nM): ~20%
Approximate % of dead cells after 48 h, SK-OV-3 ([8]; 1 nM): ~40%
Approximate % of dead cells after 48 h, SK-OV-3 ([8]; 10 nM): ~65%
Approximate % of dead cells after 48 h, SK-OV-3 ([8]; 100 nM): ~75%
IC50 ([3]; read-out: SK-OV-3 IC50 (μM)): < 1 µM
cellular activity in SK-OV-3 compared with SM-122 ([3]; relative to SM-122): equal to or better than that of SM-122
IC50 ([4]; read-out: MDA-MB-231 IC50 (μM)): < 1 µM
cellular activity in MDA-MB-231 compared with SM-122 ([4]; relative to SM-122): equal to or better than that of SM-122

Molecule: CN[C@@H](C)C(=O)N[C@H]1CN(C(=O)Cc2ccc(F)cc2)CC[C@H]2CCC(C(=O)NC(c3ccccc3)c3ccccc3)N2C1=O (stereo partly drawn) [SM-350]
IC50 (XIAP BIR3 [2]): < 1000 nM
IC50 [3, 10]: < 1 µM
IC50 [4, 11]: < 1 µM

B1: mature Smac protein: mature Smac/DIABLO polypeptide, endogenous inhibitor of XIAP (protein, UniProt Q9NR28 22-239, looked up)
Diablo IAP-binding …: LCVPVVANFKKRCFSELIRPWHKTVTIGFGVTLCAVPIAQKSEPHSLSSEALMRRAVSLVTDSTSTFLSQTTYALIEAITEYTKAVYTLTSLYRQYTSLLGKMNSEEEDEVWQVIIGARAEMTSKHQEYLKLETTWMTAVGLSEMAAEAAYQTGADQASITARNHIQLVKLQVEEVHQLSRKAETKLAEAQIEELRQKTQEEGEERAESEQEAYLRED
Kd (XIAP BIR3 [9]): 420 nM

Continued, in another order:

IC50 [1]: 926 nM
IC50 (XIAP BIR3 [2]): < 100 nM
IC50 (HL-60 leukemia cell line): 58 nM
IC50 [3, 10]: < 1 µM
IC50 ([3]; single agent, 4 days, FIG. 8, read-out: IC50, cell growth, SK-OV-3): 0.238 µM
IC50 [4, 11]: < 1 µM
IC50 ([4]; single agent, 4 days, FIG. 8, read-out: IC50, cell growth, MDA-MB-231): 0.082 µM
dose-dependent weight loss ([5]; 100 and 200 mg/kg, qd×5 per week for two weeks): up to 11%
IC50 [6]: 6640 nM
IC50 (SR leukemia cell line): 7290 nM
Molecule: CN[C@@H](C)C(=O)N[C@H]1CN(C(=O)CC(C)C)CC[C@H]2CC[C@@H](C(=O)NC(c3ccccc3)c3ccccc3)N2C1=O [SM-406]
body weight loss ([5]; 200 mg/kg, weekly dosing): < 5%

IC50 (XIAP BIR3 [2]): < 1000 nM
IC50 [3, 10]: < 1 µM
IC50 [4, 11]: < 1 µM
Molecule: CN[C@@H](C)C(=O)N[C@H]1CN(C(=O)CC2CCCC2)CC[C@H]2CC[C@@H](C(=O)NC(c3ccccc3)c3ccccc3)N2C1=O [SM-405]

IC50 (XIAP BIR3 [2]): < 10000 nM
IC50 [3, 10]: < 100 µM
IC50 [4, 11]: < 100 µM
Molecule: CN[C@@H](C)C(=O)N[C@H]1CN(C(=O)CC(C)C)CC[C@H]2CC[C@@H](C(=O)NC3CCCCC3)N2C1=O [SM-423]

IC50 (XIAP BIR3 [2]): < 10000 nM
IC50 [3, 10]: > 1 µM
IC50 [4, 11]: > 1 µM
Molecule: CN[C@@H](C)C(=O)N[C@H]1CN(C(=O)CN2CCNC(=O)C2)CC[C@H]2CC[C@@H](C(=O)NC(c3ccccc3)c3ccccc3)N2C1=O [SM-412]
